# Assay results as given in patent publication US12697315B2, “Treatment for interstitial lung disease” (United Therapeutics Corporation, priority 2020, dated 2026).
# How the values were obtained:
# Type in all cases: in vivo, human
# [1] = system: patients with interstitial lung disease and pulmonary hypertension; experiment: Exacerbations of underlying lung disease, 16-week placebo-controlled trial of inhaled treprostinil (INCREASE)
# Protocol: (§1) Subjects having underlying lung disease were treated with inhaled treprostinil over 16 weeks. Subjects initiated inhaled treprostinil or placebo at a dose of 3 breaths (18 mcg) 4 times daily (during waking hours). Study drug doses were maximized throughout the study. Dose escalations (additional 1 breath 4 times daily) could occur up to every 3 days with a target dosing regimen of 9 breaths (54 mcg) 4 times daily and a maximum dose of 12 breaths (72 mcg) 4 times daily, as clinically tolerated. Subjects were assessed during Screening and Baseline to determine eligibility for the study. Once eligible, 5 Treatment Phase visits to the clinic were required at Week 4, Week 8, Week 12, Week 15, and Week 16 (final study visit). An Early Termination (ET) Visit was conducted for subjects who discontinued prior to Week 16; all assessments planned for the final Week 16 Visit were conducted during the ET Visit, if applicable. Subjects were contacted at least weekly by telephone or email to assess tolerance to study drug, adverse events (AEs), and changes to concomitant medications.
# [2] = system: patients with interstitial lung disease and pulmonary hypertension; experiment: Pulmonary function tests (FVC, FEV1, TLC, DLCO), mixed model repeated measurement, INCREASE
# Protocol: as §1
# Pulmonary function testing was initially conducted as a safety assessment (Safety Population) during the study. […] As a result, post hoc MMRM analyses of FVC data were performed for the ITT Population and are presented in Table 1 (ITT Population), Table 2 (by PH ILD Etiology of IIP) and Table 3 (for subjects with IPF), shown below.
# (§2) The 6-minute walk test was performed and laboratory data were obtained at baseline and at weeks 4, 8, 12, and 16, or at the time of early discontinuation of treprostinil or placebo. Each 6-minute walk test was performed 10 to 60 minutes after the most recent dose of active drug or placebo, which is the time of peak plasma treprostinil exposure. A trough test was performed at week 15 at least 4 hours after the participant received a dose of treprostinil or placebo and at least 24 hours before the week 16 test. Pulse oximetry was performed immediately before, during, and after each 6-minute walk test. Measurement of N-terminal pro-B-type natriuretic peptide (NT-proBNP) levels and pulmonary function tests were performed at baseline and at weeks 8 and 16 (or at early discontinuation) after the patients recovered from the 6-minute walk test. The St. George's Respiratory Questionnaire (SGRQ), a quality-of-life measure, was completed at baseline and week 16 or at the time of early discontinuation.
# LS Mean (SE); P-values; estimated difference (SE); and associated 95% CIs are from the mixed model repeated measurement with the change from Baseline in pulmonary function test parameter as the dependent variable; treatment, week, treatment by week interaction as the fixed effects; Baseline measurement as the covariate; and subject as the random effect. An unstructured variance/covariance structure shared across treatment groups was used to model the within-subject errors.
# [3] = system: patients with interstitial lung disease and pulmonary hypertension; experiment: St. George's Respiratory Questionnaire, INCREASE
# Protocol: as §2
# The St. George's Respiratory Questionnaire has a range of results from 0 to 100, with higher scores indicating greater impairment and with a minimum clinically important difference of 4 points.
# The changes from baseline in Total Score and each of the 3 domain scores were analyzed by parametric ANCOVA with no imputation for missing data.
# [4] = system: patients with interstitial lung disease and pulmonary hypertension; experiment: SpO2 by pulse oximetry around the 6-minute walk test, INCREASE
# Protocol: as §2
# [5] = Week 8, subjects with IPF, listed as inhaled treprostinil
# [6] = Week 16, subjects with IPF, listed as inhaled treprostinil
structure (smiles),measurement,setting,value
"CCCCC[C@H](O)CC[C@@H]1[C@H]2Cc3cccc(OCC(=O)O)c3C[C@H]2C[C@H]1O [Inhaled treprostinil, treprostinil]",patients with exacerbations of underlying lung disease,[1]; over the 16-week treatment period,26.4%
same,"hazard ratio, exacerbation of underlying lung disease","[1]; vs placebo, 16 weeks",0.66
same,reduction in risk of an exacerbation of underlying lung disease,"[1]; vs placebo, 16 weeks",34%
same,effect on any pulmonary function test variable during the trial,[2]; 16-week trial,no deleterious effect
same,"FVC (% predicted), Estimated Difference Inhaled treprostinil - Placebo","[2]; Week 8, ITT Population, MMRM",1.79 % predicted
same,"FVC (% predicted), LS Mean change from baseline","[2]; Week 8, ITT Population, MMRM",0.77 % predicted
same,"FVC (mL), Estimated Difference Inhaled treprostinil - Placebo","[2]; Week 8, ITT Population, MMRM",28.47 mL
same,"FVC (mL), LS Mean change from baseline","[2]; Week 8, ITT Population, MMRM",5.49 mL
same,"DLCO (% predicted), Estimated Difference Inhaled treprostinil − Placebo","[2]; Week 8, MMRM",1.07 % predicted
same,"DLCO (% predicted), LS Mean change from Baseline","[2]; Week 8, MMRM",−0.13 % predicted
same,"DLCO (mL/min/mmHg), Estimated Difference Inhaled treprostinil − Placebo","[2]; Week 8, MMRM",0.19 mL/min/mmHg
same,"DLCO (mL/min/mmHg), LS Mean change from Baseline","[2]; Week 8, MMRM",−0.27 mL/min/mmHg
same,"FEV1 (% predicted), Estimated Difference Inhaled treprostinil − Placebo","[2]; Week 8, MMRM",0.57 % predicted
same,"FEV1 (% predicted), LS Mean change from Baseline","[2]; Week 8, MMRM",−0.18 % predicted
same,"FEV1 (mL), Estimated Difference Inhaled treprostinil − Placebo","[2]; Week 8, MMRM",-8.95 mL
same,"FEV1 (mL), LS Mean change from Baseline","[2]; Week 8, MMRM",-21.34 mL
same,"TLC (% predicted), Estimated Difference Inhaled treprostinil − Placebo","[2]; Week 8, MMRM",0.28 % predicted
same,"TLC (% predicted), LS Mean change from Baseline","[2]; Week 8, MMRM",−0.05 % predicted
same,"TLC (mL), Estimated Difference Inhaled treprostinil − Placebo","[2]; Week 8, MMRM",-16.23 mL
same,"TLC (mL), LS Mean change from Baseline","[2]; Week 8, MMRM",-38.75 mL
same,"FVC (% predicted), Estimated Difference Inhaled treprostinil - Placebo","[2]; Week 8, PH-ILD etiology IIP",1.95 % predicted
same,"FVC (% predicted), LS Mean change from baseline","[2]; Week 8, PH-ILD etiology IIP",0.92 % predicted
same,"FVC (mL), Estimated Difference Inhaled treprostinil - Placebo","[2]; Week 8, PH-ILD etiology IIP",46.48 mL
same,"FVC (mL), LS Mean change from baseline","[2]; Week 8, PH-ILD etiology IIP",9.27 mL
same,"FVC (% predicted), Estimated Difference Inhaled treprostinil - Placebo","[2]; Week 8, subjects with IPF",2.543 % predicted
same,"FVC (% predicted), LS Mean change from baseline","[2]; Week 8, subjects with IPF",1.60 % predicted
same,"FVC (mL), Estimated Difference Inhaled treprostinil - Placebo","[2]; Week 8, subjects with IPF",84.522 mL
same,"FVC (mL), LS Mean change from baseline","[2]; Week 8, subjects with IPF",41.69 mL
same,"FVC (% predicted), Estimated Difference Inhaled treprostinil - Placebo",[2]; [5],2.54 % predicted
same,"FVC (mL), Estimated Difference Inhaled treprostinil - Placebo",[2]; [5],84.52 mL
same,"FVC (% predicted), Estimated Difference Inhaled treprostinil - Placebo","[2]; Week 16, ITT Population, MMRM",1.80 % predicted
same,"FVC (% predicted), LS Mean change from baseline","[2]; Week 16, ITT Population, MMRM",1.07 % predicted
same,"FVC (mL), Estimated Difference Inhaled treprostinil - Placebo","[2]; Week 16, ITT Population, MMRM",44.40 mL
same,"FVC (mL), LS Mean change from baseline","[2]; Week 16, ITT Population, MMRM",9.77 mL
same,"DLCO (% predicted), Estimated Difference Inhaled treprostinil − Placebo","[2]; Week 16, MMRM",0.60 % predicted
same,"DLCO (% predicted), LS Mean change from Baseline","[2]; Week 16, MMRM",−1.14 % predicted
same,"DLCO (mL/min/mmHg), Estimated Difference Inhaled treprostinil − Placebo","[2]; Week 16, MMRM",0.02 mL/min/mmHg
same,"DLCO (mL/min/mmHg), LS Mean change from Baseline","[2]; Week 16, MMRM",−0.61 mL/min/mmHg
same,"FEV1 (% predicted), Estimated Difference Inhaled treprostinil − Placebo","[2]; Week 16, MMRM",0.38 % predicted
same,"FEV1 (% predicted), LS Mean change from Baseline","[2]; Week 16, MMRM",−0.24 % predicted
same,"FEV1 (mL), Estimated Difference Inhaled treprostinil − Placebo","[2]; Week 16, MMRM",-2.56 mL
same,"FEV1 (mL), LS Mean change from Baseline","[2]; Week 16, MMRM",-32.18 mL
same,"TLC (% predicted), Estimated Difference Inhaled treprostinil − Placebo","[2]; Week 16, MMRM",1.49 % predicted
same,"TLC (% predicted), LS Mean change from Baseline","[2]; Week 16, MMRM",2.52 % predicted
same,"TLC (mL), Estimated Difference Inhaled treprostinil − Placebo","[2]; Week 16, MMRM",17.37 mL
same,"TLC (mL), LS Mean change from Baseline","[2]; Week 16, MMRM",45.43 mL
same,"FVC (% predicted), Estimated Difference Inhaled treprostinil - Placebo","[2]; Week 16, PH-ILD etiology IIP",2.88 % predicted
same,"FVC (% predicted), LS Mean change from baseline","[2]; Week 16, PH-ILD etiology IIP",1.66 % predicted
same,"FVC (mL), Estimated Difference Inhaled treprostinil - Placebo","[2]; Week 16, PH-ILD etiology IIP",108.18 mL
same,"FVC (mL), LS Mean change from baseline","[2]; Week 16, PH-ILD etiology IIP",22.16 mL
same,"FVC (% predicted), median improvement","[2]; Week 16, Safety Population",1.0%
same,"FVC (% predicted), Estimated Difference Inhaled treprostinil - Placebo","[2]; Week 16, subjects with IPF",3.504 % predicted
same,"FVC (% predicted), LS Mean change from baseline","[2]; Week 16, subjects with IPF",1.62 % predicted
same,"FVC (mL), Estimated Difference Inhaled treprostinil - Placebo","[2]; Week 16, subjects with IPF",168.524 mL
same,"FVC (mL), LS Mean change from baseline","[2]; Week 16, subjects with IPF",38.24 mL
same,"FVC (% predicted), Estimated Difference Inhaled treprostinil - Placebo",[2]; [6],3.50 % predicted
same,"FVC (mL), Estimated Difference Inhaled treprostinil - Placebo",[2]; [6],168.52 mL
same,"St. George's Respiratory Questionnaire, Change from Baseline, Median",[3]; Week 16,−0.70
same,"St. George's Respiratory Questionnaire, Value, Median",[3]; Week 16,56.30
same,"St. George's Respiratory Questionnaire, Change from Baseline, LS Mean (SE)","[3]; Week 16, ANCOVA",−1.30 (0.87)
same,"St. George's Respiratory Questionnaire, Change from Baseline, Mean (SD)","[3]; Week 16, n 143",−1.25 (10.99)
same,"St. George's Respiratory Questionnaire, Value, Mean (SD)","[3]; Week 16, n 143",55.91 (17.07)
same,"St. George's Respiratory Questionnaire, LS Mean Difference","[3]; week 16, vs placebo","−1.18, (1.25) (−3.63, 1.28)"
same,between-group difference in patient-reported quality of life assessed with the SGRQ,"[3]; week 16, vs placebo",no significant between-group difference
same,"During Walk SpO2 (%), Change from Pre-walk, Median",[4]; Week 16,−17.0%
same,"During Walk SpO2 (%), Value, Median",[4]; Week 16,77.0%
same,"Post-walk SpO2 (%), Change from Pre-walk, Median",[4]; Week 16,−13.0%
same,"Post-walk SpO2 (%), Value, Median",[4]; Week 16,83.0%
same,"Pre-walk SpO2 (%), Value, Median",[4]; Week 16,95.0%
same,"During Walk SpO2 (%), Change from Pre-walk, Mean (SD)","[4]; Week 16, n 123",−17.6 (7.01) %
same,"During Walk SpO2 (%), Value, Mean (SD)","[4]; Week 16, n 123",76.8 (7.70) %
same,"Post-walk SpO2 (%), Change from Pre-walk, Mean (SD)","[4]; Week 16, n 128",−12.4 (8.05) %
same,"Post-walk SpO2 (%), Value, Mean (SD)","[4]; Week 16, n 128",82.1 (9.24) %
same,"Pre-walk SpO2 (%), Value, Mean (SD)","[4]; Week 16, n 130",94.5 (4.35) %
same,treatment-related changes in pulse oximetry,[4]; over the trial period,no significant treatment-related changes
